Experiment: Concentration required for 50% inhibition of growth of AA8 cells following 4 hr drug exposure
Format: functional, cell-based
Conditions: Cricetulus griseus, CHO-AA8, 4 h

SMILES	IC50 [µM]
COc1cc2cc(C(=O)N3CC(CCl)c4ccc([N+](=O)[O-])cc43)[nH]c2c(OC)c1OC (stereo not drawn)	> 40
COc1cc2cc(C(=O)N3CC(CCl)c4c3cc(N(C)C)c3ccccc43)[nH]c2c(OC)c1OC (stereo not drawn)	0.0056
CNc1cc2c(c3ccccc13)C(CCl)CN2C(=O)c1cc2cc(OC)c(OC)c(OC)c2[nH]1 (stereo not drawn)	0.00017
COc1cc2cc(C(=O)N3CC(CCl)c4c3cc(N)c3ccccc43)[nH]c2c(OC)c1OC (stereo not drawn)	0.00043
COc1cc2cc(C(=O)N3CC(CCl)c4c3cc([N+](=O)[O-])c3ccccc43)[nH]c2c(OC)c1OC (stereo not drawn)	1.6
COc1cc2cc(C(=O)N3CC(CCl)c4ccc(N)cc43)[nH]c2c(OC)c1OC (stereo not drawn)	0.32
CNc1ccc2c(c1)N(C(=O)c1cc3cc(OC)c(OC)c(OC)c3[nH]1)CC2CCl (stereo not drawn)	0.22
COc1cc2cc(C(=O)N3CC(CCl)c4ccc(N(C)C)cc43)[nH]c2c(OC)c1OC (stereo not drawn)	0.28
